Test results from patent US8637681B2, “Pyrrolyl substituted dihydroindol-2-one derivatives, preparation methods and uses thereof” (Qilu Pharmaceutical Co., Ltd., priority 2010, dated 2014).

Legend:
[1] = system: arterial ring angiogenesis in rats; test: Inhibitory actions on arterial ring angiogenesis in rats; format: cell-based; conditions: Rattus norvegicus, area covered by micrangiums vs control well, read-out: Inhibitory rate (%); for inhibition at 0.2 µg/mL: 0.2 μg/ml; for inhibition at 1 µg/mL: 1 μg/ml; for inhibition at 5 µg/mL: 5 μg/ml
Method: This experiment was conducted by referring to the method described by R. F. Nicosia et al (Nicosia, R. F., et al. Am J Pathol., 1997, 151, 1379-1386). Rats were executed by cervical dislocation. The thoracic aorta was carefully separated, and placed in a container with physiological saline. The excess tissues were carefully cut off. The blood vessels were cut with a pair of ophthalmic scissors to form 1 mm thick vascular ring slices. To a pre-cooled 96-well cell culture plate, one separated vascular ring was placed in the center of each well. 70 μl of pre-molten Matrigel was carefully added to cover the vascular ring, which was incubated at 37° C. for 1 h so as to solidify it. […] The sample was placed in incubator for conventional culture, and each compound was tested at least in two repeated wells, and each test was repeated twice. […] The fresh culture medium was replaced every 3 days, and the drug was changed at the same time. The survival status of vascular rings was observed under microscope, and pictures were taken at the same time. Image Pro Plus software was used to calculate the area covered by micrangiums. The average inhibition rate was calculated by using the formula: inhibition rate (%)=(area of control well−area of drug well)/area of control well×100%.

[2] = Cytotoxicity test (SRB), A549; format: cell-based; conditions: human, A549 non-small cell lung cancer cells
Method: (§1) Cytotoxicity of the compounds of the present invention was tested with human non-small cell lung cancer cells A549, human cervical cancer Hela cells, human skin cancer cells A431. The test was performed by referring to the method described by Rusnak et al (Rusnak D. W., et al., Cell Prolif., 2007, 40, 580-94).
(§2) In Dulbecco's Modified Eagle Medium (DMEM) comprising 10% fetal bovine serum, 2 mM glutamine and non-essential amino acids, cells were cultured at 37° C. in 5% CO2 cell incubator. Trypsin/ethylenediamine tetraacetic acid (EDTA) were used to harvest cells in cell culture bottle. The cells were added to a 96-well cell culture plate, 4000/well (0.1 ml medium), adhering wall overnight, 0.1 ml of the diluted solution of the compounds to be tested was added, the final concentration of DMSO was 0.25%. The cell culture plate was incubated at 37° C., 5% CO2 conditions for 72 h. The change of cellular morphology was observed under microscope, and then 50 μl of 50% (mass/volume) trichloroacetic acid (TCA) was added to each well to fix cells. The final concentration of TCA was 10%. It stood for 5 min, than was placed in 4° C. refrigerator for 1 h, the wells of the culture plate were washed with deionized water for 5 times to remove TCA, drained, dried in air until no wet trace was observed. 100 μl of 0.4% (mass/volume) SRB was added to each well, stood at room temperature for 10 min. The liquid in each well was discarded, and then the wells were washed with 1% acetic acid for 5 times, dried in air, extracted with 150 μl of 10 mM Tris base (trihydroxymethylaminomethane, pH 10.5). The absorption at a wavelength of 540 nm was measured. The IC50 (μM) of the compound was calculated using Logit method.

[3] = Cytotoxicity test (SRB), Hela; format: cell-based; conditions: human, Hela cervical cancer cells
Method: Cytotoxicity of the compounds of the present invention was tested with human non-small cell lung cancer cells A549, human cervical cancer Hela cells, human skin cancer cells A431. The test was performed by referring to the method described by Rusnak et al (Rusnak D. W., et al., Cell Prolif., 2007, 40, 580-94). […] Trypsin/ethylenediamine tetraacetic acid (EDTA) were used to harvest cells in cell culture bottle. The cells were added to a 96-well cell culture plate, 4000/well (0.1 ml medium), adhering wall overnight, 0.1 ml of the diluted solution of the compounds to be tested was added, the final concentration of DMSO was 0.25%. The cell culture plate was incubated at 37° C., 5% CO2 conditions for 72 h. […] The absorption at a wavelength of 540 nm was measured. The IC50 (μM) of the compound was calculated using Logit method.

[4] = Cytotoxicity test (SRB), A431; format: cell-based; conditions: human, A431 skin cancer cells
Method: as §1, §2

[5] = system: human colon cancer HT 29 transplanted tumor; test: Nude mice transplanted tumor test; format: in vivo, female Balb/cA nude mice; set-up: key to d21 Vave ± SD (average tumor volume): tumor volume TV = ½×a×b² (a, b = major, minor diameter), in mm³; conditions: for Dead animal number / inhibition in vivo at 80 mg/kg / d21 Wave ± SD (average bodyweight of nude mice) / d21 Vave ± SD (average tumor volume) / d21 RTV ± SD (relative tumor volume): 80 mg/kg intragastrically each day for 20 days; for Dead animal number: dead/total animals; for inhibition in vivo at 80 mg/kg: Mus musculus, HT-29, po, 504 h, (1−T/C)×100%, read-out: Tumor inhibition rate d21 (%); for inhibition in vivo at 80 mg/kg / d21 Wave ± SD (average bodyweight of nude mice) / d21 Vave ± SD (average tumor volume) / d21 RTV ± SD (relative tumor volume): d21; for d0 Wave ± SD (average bodyweight of nude mice): d0, at grouping before administration (baseline); for d21 Vave ± SD (average tumor volume): HT 29 in nude mice, in mm³ (unit assumed); for d21 RTV ± SD (relative tumor volume): RTV=Vt/V0
Method: The nude mice transplanted tumor test used female Balb/cA nude mice, and tumor strains were human colon cancer HT 29 strains.
Under sterile condition, eugonic tumor tissues stage were cut into pieces of about 1.5 mm^3, and inoculated at right axillary fossa of the nude mice. The transplanted tumor diameter was measured by vernier caliper, and the animals were randomly grouped after the tumors grew to about 120 mm^3. The positive control group and the compounds group in a dosage of 80 mg/kg were administered intragastrically each day for consecutive 20 days. The negative control group was given equivalent amount of injection water containing 0.1% Tween 80. Tumor diameters and the bodyweight of mice were measured 2-3 times every week. The evaluation indexes observed in the test include relative tumor proliferation rate, bodyweight and general states. The formulation for calculating tumor volume (TV) is: TV=½×a×b^2, wherein a, b represent major diameter and minor diameter of tumor; Relative tumor volume (RTV) was calculated according the results of measurement by the following formula: RTV=Vt/V0, wherein V0 is tumor volume measured when dividing groups for administration, and Vt is tumor volume measured after each administration.

SMILES | inhibition at 0.2 µg/mL [1] | inhibition at 1 µg/mL [1] | inhibition at 5 µg/mL [1] | IC50 at 72 h [2] | IC50 at 72 h [3] | IC50 at 72 h [4] | Dead animal number [5] | inhibition in vivo at 80 mg/kg [5] | d0 Wave ± SD (average bodyweight of nude mice) [5] | d21 Wave ± SD (average bodyweight of nude mice) [5] | d21 Vave ± SD (average tumor volume) [5] | d21 RTV ± SD (relative tumor volume) [5] | Activity of inhibiting HT-29 transplanted tumor in vivo (in words) ([5]; 80 mg/kg, compared with positive control Sunitinib)
CCN(CC)CC(=O)Nc1c(C)[nH]c(/C=C2\C(=O)Nc3cc(C(F)(F)F)ccc32)c1C [Compound 24, N-{5-[6-trifluoromethyl-2-oxo-1,2-dihydro-indol-(3Z)-ylidenemethyl]-2,4-dimethyl-1H-pyrrol-3-yl}-2-(N,N-diethylamino)acetamide] | 98% | 100% | 100% | > 30 µM | 3.56 µM | 8.89 µM | 0/6 | 64.9% | 18.6 ± 0.36 | 17.9 ± 0.58 | 298.5 ± 55.8 | 2.52 ± 0.23 | –
Cc1[nH]c(/C=C2\C(=O)Nc3ccc(F)cc32)c(C)c1NC(=O)CN1CCCCC1 [Compound 16, N-{5-[5-fluoro-2-oxo-1,2-dihydro-indol-(3Z)-ylidenemethyl]-2,4-dimethyl-1H-pyrrol-3-yl}-2-(piperidin-1-yl)acetamide] | 91% | 100% | 100% | > 30 µM | > 30 µM | 6.25 µM | 0/6 | 68.7% | 19.5 ± 0.46 | 18.5 ± 0.59 | 268.4 ± 33.8 | 2.25 ± 0.37 | –
Cc1[nH]c(/C=C2\C(=O)Nc3ccc(F)cc32)c(C)c1NC(=O)CCN1CCN(C)CC1 [Compound 11, N-{5-[5-fluoro-2-oxo-1,2-dihydro-indol-(3Z)-ylidenemethyl]-2,4-dimethyl-1H-pyrrol-3-yl}-3-(4-methylpiperazin-1-yl)propionamide] | 99% | 100% | 100% | > 30 µM | > 30 µM | > 30 µM | 0/6 | 88.5% | 18.5 ± 0.55 | 20.5 ± 0.49 | 96.7 ± 35.4 | 0.83 ± 0.52 | inhibitory activity comparable to the positive control Sunitinib
CCN(CC)CCC(=O)Nc1c(C)[nH]c(/C=C2\C(=O)Nc3ccc(NS(C)(=O)=O)cc32)c1C [Compound 8, N-{5-[5-methylsulfonylamino-2-oxo-1,2-dihydro-indol-(3Z)-ylidenemethyl]-2,4-dimethyl-1H-pyrrol-3-yl}-3-(N,N-diethylamino)propionamide] | 94% | 100% | 100% | > 30 µM | > 30 µM | > 30 µM | 0/6 | 78.9% | 19.2 ± 0.32 | 17.8 ± 0.65 | 186.0 ± 53.1 | 1.52 ± 0.56 | –
CCN(CC)CC(=O)Nc1c(C)[nH]c(/C=C2\C(=O)Nc3ccc(NC(C)=O)cc32)c1C [Compound 28, N-{5-[5-acetylamino-2-oxo-1,2-dihydro-indol-(3Z)-ylidenemethyl]-2,4-dimethyl-1H-pyrrol-3-yl}-2-(N,N-diethylamino)acetamide] | 90% | 100% | 100% | > 30 µM | > 30 µM | > 30 µM | 0/6 | 77% | 18.8 ± 1.01 | 19.5 ± 0.86 | 204.3 ± 52.7 | 1.65 ± 0.62 | –
